Assay results published in ChEMBL document CHEMBL1811879, “Fragmental modeling of hPepT2 and analysis of its binding features by docking studies and pharmacophore mapping” (Bioorg Med Chem, 2011).
pKi: −log10 of the molar value. Where a SMILES comes first, the peptide text is derived from it. [ ]: non-standard residue; d: D form. Nle = CCCC[C@H](N)C(=O)O

These compounds were tested against T1, Solute carrier family 15 member 2 (Homo sapiens, UniProt Q16348) (assay: Binding affinity to human PepT2 in SKTP cells).
T1 sequence (Q16348 whole entry): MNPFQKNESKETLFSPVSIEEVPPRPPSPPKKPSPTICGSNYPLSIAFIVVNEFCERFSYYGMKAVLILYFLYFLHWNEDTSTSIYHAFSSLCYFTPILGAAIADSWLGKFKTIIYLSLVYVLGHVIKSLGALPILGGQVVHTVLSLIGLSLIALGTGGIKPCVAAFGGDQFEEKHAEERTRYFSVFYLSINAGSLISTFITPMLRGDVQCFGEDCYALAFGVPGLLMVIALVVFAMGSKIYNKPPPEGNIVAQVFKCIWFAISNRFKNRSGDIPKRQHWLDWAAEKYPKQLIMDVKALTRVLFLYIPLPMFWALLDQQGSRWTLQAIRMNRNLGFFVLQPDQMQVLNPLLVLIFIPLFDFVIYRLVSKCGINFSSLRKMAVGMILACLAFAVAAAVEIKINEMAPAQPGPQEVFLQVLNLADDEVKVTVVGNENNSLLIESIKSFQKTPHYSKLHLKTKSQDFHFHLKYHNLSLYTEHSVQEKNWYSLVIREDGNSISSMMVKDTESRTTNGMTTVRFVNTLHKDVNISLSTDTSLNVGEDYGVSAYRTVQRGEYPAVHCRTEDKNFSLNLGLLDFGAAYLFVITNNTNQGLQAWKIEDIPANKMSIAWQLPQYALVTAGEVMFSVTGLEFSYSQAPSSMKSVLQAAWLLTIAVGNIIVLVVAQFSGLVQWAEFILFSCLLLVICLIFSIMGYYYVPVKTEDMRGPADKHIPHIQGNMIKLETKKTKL
Assay type: ADME, cell-based

Compound | pKi
CO/N=C(\C(=O)N[C@@H]1C(=O)N2C(C(=O)[O-])=C(C[N+]3(C)CCCC3)CS[C@H]12)c1csc(N)n1 | 1.96
Cc1onc(-c2c(Cl)cccc2Cl)c1C(=O)N[C@@H]1C(=O)N2[C@@H]1SC(C)(C)[C@@H]2C(=O)O [DICLOXACILLIN] | 3.38
C[C@H](N)C(=O)N[C@@H](CCCCN)C(=O)O (H-Ala-Lys-OH) | 4.64
NCCCC[C@H](NC(=O)[C@H](Cc1cnc[nH]1)NC(=O)CN)C(=O)O (H-Gly-His-Lys-OH) | 2.51
Cc1onc(-c2ccccc2)c1C(=O)N[C@@H]1C(=O)N2[C@@H]1SC(C)(C)[C@@H]2C(=O)O [OXACILLIN] | 2.48
C[C@H](N)C(=O)N[C@@H](C)C(=O)N[C@@H](CC(=O)O)C(=O)O (H-Ala-Ala-Asp-OH) | 3.80
CC1(C)S[C@@H]2[C@H](NC(=O)C3(N)CCCCC3)C(=O)N2[C@H]1C(=O)O [CYCLACILLIN] | 4.36
O=C(Cc1cccs1)N[C@@H]1C(=O)N2C(C(=O)[O-])=C(C[n+]3ccccc3)CS[C@H]12 [CEPHALORIDINE] | 2.07
CC1=C(C(=O)O)N2C(=O)[C@@H](NC(=O)[C@H](N)c3ccccc3)[C@H]2SC1 [CEPHALEXIN ANHYDROUS] | 4.12
COCC1=C(C(=O)O)N2C(=O)[C@@H](NC(=O)/C(=N\OC)c3csc(N)n3)[C@H]2SC1 [CEFPODOXIME] | 1.51
Cn1nnnc1SCC1=C(C(=O)O)N2C(=O)[C@@H](NC(=O)[C@H](O)c3ccccc3)[C@H]2SC1 [CEFAMANDOLE] | 2.55
NCC(=O)N[C@@H](Cc1c[nH]cn1)C(=O)O (H-Gly-His-OH) | 4.41
CO/N=C(\C(=O)N[C@@H]1C(=O)N2C(C(=O)O)=C(CSc3nc(C)c(CC(=O)O)s3)CS[C@H]12)c1csc(N)n1 [CEFODIZIME] | 2.05
H-AATAA-OH | 3.72
NCC(=O)NCC(=O)O (H-Gly-Gly-OH) | 4.27
CC(C)[C@H](N)C(=O)N1CCC[C@H]1C(=O)O (H-Val-Pro-OH) | 4.41
C=CC1=C(C(=O)O)N2C(=O)[C@@H](NC(=O)/C(=N\OCC(=O)O)c3csc(N)n3)[C@H]2SC1 [CEFIXIME] | 2.59
O=C(O)CC[C@H](NC(=O)[C@@H]1CCCN1)C(=O)O (H-Pro-Glu-OH) | 2.59
C[C@H](N)C(=O)N[C@H](C)C(=O)O (H-Ala-[dA]-OH) | 3.57
CO/N=C(\C(=O)N[C@@H]1C(=O)N2C(C(=O)O)=C(COC(N)=O)CS[C@H]12)c1ccco1 [CEFUROXIME] | 1.90

Compound | pKi
CO[C@@]1(NC(=O)CSCC#N)C(=O)N2C(C(=O)O)=C(CSc3nnnn3C)CS[C@@H]21 [CEFMETAZOLE] | 2.37
CC(=O)CCC(=O)O [LEVULINIC ACID] | 3.64
CC1(C)S[C@@H]2[C@H](NC(=O)[C@H](N)c3ccc(O)cc3)C(=O)N2[C@H]1C(=O)O [AMOXICILLIN] | 3.37
H-FATAA-OH | 3.62
CC(=O)OCC1=C(C(=O)O)N2C(=O)[C@@H](NC(=O)Cc3cccs3)[C@H]2SC1 [CEPHALOTHIN] | 2.08
CC(=O)OCC1=C(C(=O)O)N2C(=O)[C@@H](NC(=O)CSc3ccncc3)[C@H]2SC1 [CEPHAPIRIN SODIUM] | 1.95
NCCCC[C@H](NC(=O)[C@H](Cc1ccccc1)NC(=O)[C@@H]1CCCN1)C(=O)O (H-Pro-Phe-Lys-OH) | 3.05
C[C@H](N)C(=O)N[C@@H](C)C(=O)N[C@@H](C)C(=O)O | 4.74
C=N[C@@H](C(=O)N[C@@H]1C(=O)N2[C@@H]1SC(C)(C)[C@@H]2C(=O)O)c1ccccc1 [METAMPICILLIN] | 3.14
N[C@@H](CS)C(=O)NCC(=O)O | 4.54
O=C(O)C[C@H](NC(=O)[C@@H]1CCCN1)C(=O)O (H-Pro-Asp-OH) | 2.68
C[C@H](NC(=O)[C@@H](C)N)C(=O)O (H-[dA]-Ala-OH) | 3.89
C[C@H](NC(=O)[C@@H](N)CCCCN)C(=O)O (H-Lys-Ala-OH) | 4.39
N[C@@H](Cc1ccccc1)C(=O)N[C@@H](Cc1ccccc1)C(=O)O (H-Phe-Phe-OH) | 4.43
CO/N=C(\C(=O)N[C@@H]1C(=O)N2C(C(=O)O)=C(COC(C)=O)CS[C@H]12)c1csc(N)n1 [CEFOTAXIME] | 1.70
CCCC[C@H](NC(=O)[C@H](C)N)C(=O)O (H-Ala-[Nle]-OH) | 4.51
C[C@H](N)C(=O)N[C@H](C(=O)N[C@@H](C)C(=O)N[C@@H](C)C(=O)O)[C@@H](C)O (H-ATAA-OH) | 3.26
Cc1onc(-c2ccccc2Cl)c1C(=O)N[C@@H]1C(=O)N2[C@@H]1SC(C)(C)[C@@H]2C(=O)O [CLOXACILLIN] | 3.02
N[C@@H](CC(=O)O)C(=O)N[C@@H](CC(=O)O)C(=O)O (H-Asp-Asp-OH) | 3.82

Further compounds by rising pKi, results first:

pKi | Compound
4.74 | CC(C)C[C@H](N)C(=O)NCC(=O)NCC(=O)O (H-Leu-Gly-Gly-OH)
4.80 | CC(=O)N[C@@H](CCCCN)C(=O)N[C@@H](C)C(=O)O (Ac-Lys-Ala-OH)
4.85 | N[C@@H](Cc1ccccc1)C(=O)NCC(=O)O (H-Phe-Gly-OH)
4.85 | CC[C@H](C)[C@H](N)C(=O)N[C@H](C(=O)N[C@@H](Cc1ccc(O)cc1)C(=O)O)C(C)C (H-Ile-Val-Tyr-OH)
4.92 | C[C@H](N)C(=O)N1CCC[C@H]1C(=O)O (H-Ala-Pro-OH)
5.00 | CC(C)C[C@H](N)C(=O)N1CCC[C@H]1C(=O)O (H-Leu-Pro-OH)
5.05 | N[C@@H](Cc1ccc(O)cc1)C(=O)N[C@@H](Cc1ccccc1)C(=O)O (H-Tyr-Phe-OH)
5.10 | CC[C@H](C)[C@H](N)C(=O)N[C@@H](Cc1ccc(O)cc1)C(=O)O (H-Ile-Tyr-OH)
5.15 | C[C@H](NC(=O)[C@@H](N)CO)C(=O)O (H-Ser-Ala-OH)
5.15 | C[C@H](N)C(=O)NCC(=O)O (H-Ala-Gly-OH)
5.22 | C[C@H](N)C(=O)N[C@@H](CO)C(=O)O (H-Ala-Ser-OH)
5.36 | C[C@H](NC(=O)[C@@H](N)Cc1ccc(O)cc1)C(=O)O
5.40 | C[C@H](NC(=O)[C@@H](N)Cc1c[nH]c2ccccc12)C(=O)O (H-Trp-Ala-OH)
5.46 | C[C@H](NC(=O)CN)C(=O)O (H-Gly-Ala-OH)
5.52 | CC1=C(C(=O)O)N2C(=O)[C@@H](NC(=O)[C@H](N)c3ccc(O)cc3)[C@H]2SC1 [CEFADROXIL]
5.52 | CSCC[C@H](NC(=O)[C@@H](N)CCSC)C(=O)O (H-Met-Met-OH)
5.60 | CC(C)[C@H](N)C(=O)N[C@@H](Cc1ccc(O)cc1)C(=O)O (H-Val-Tyr-OH)
5.77 | N[C@@H](Cc1c[nH]c2ccccc12)C(=O)NCC(=O)N[C@@H](Cc1ccc(O)cc1)C(=O)O
6.10 | N[C@@H](Cc1c[nH]c2ccccc12)C(=O)N[C@@H](Cc1c[nH]c2ccccc12)C(=O)O (H-Trp-Trp-OH)
6.52 | N[C@@H](Cc1c[nH]c2ccccc12)C(=O)N[C@@H](Cc1c[nH]c2ccccc12)C(=O)N[C@@H](Cc1c[nH]c2ccccc12)C(=O)O (H-Trp-Trp-Trp-OH)
